Reference: ChEMBL document CHEMBL4229409, “Rational design of novel irreversible inhibitors for human arginase” (Bioorg Med Chem, 2018)
The source made the active and inactive calls. The rule behind the calls is not given here.

Experiments:
[1] = molecular target: T1, Arginase-1 (Homo sapiens) (UniProt P05089); assay: Irreversible inhibition of human arginase 1 assessed as inactivation rate constant using thioarginine as substrate measured up to 360 mins by UV micro plate method
T1 sequence (whole entry): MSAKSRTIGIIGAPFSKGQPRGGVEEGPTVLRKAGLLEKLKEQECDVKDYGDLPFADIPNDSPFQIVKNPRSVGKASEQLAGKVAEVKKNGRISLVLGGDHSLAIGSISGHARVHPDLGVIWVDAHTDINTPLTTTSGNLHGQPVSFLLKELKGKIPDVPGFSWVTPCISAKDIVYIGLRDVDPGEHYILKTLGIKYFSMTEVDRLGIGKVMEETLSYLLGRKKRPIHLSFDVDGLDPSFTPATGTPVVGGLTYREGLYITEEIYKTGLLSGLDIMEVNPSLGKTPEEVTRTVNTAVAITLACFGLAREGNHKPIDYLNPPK

[2] = molecular target: T2, Arginase-2, mitochondrial (Homo sapiens) (UniProt P78540); assay: Irreversible inhibition of human arginase 2 assessed as inactivation rate constant using thioarginine as substrate measured up to 360 mins by UV micro plate method
T2 sequence (whole entry): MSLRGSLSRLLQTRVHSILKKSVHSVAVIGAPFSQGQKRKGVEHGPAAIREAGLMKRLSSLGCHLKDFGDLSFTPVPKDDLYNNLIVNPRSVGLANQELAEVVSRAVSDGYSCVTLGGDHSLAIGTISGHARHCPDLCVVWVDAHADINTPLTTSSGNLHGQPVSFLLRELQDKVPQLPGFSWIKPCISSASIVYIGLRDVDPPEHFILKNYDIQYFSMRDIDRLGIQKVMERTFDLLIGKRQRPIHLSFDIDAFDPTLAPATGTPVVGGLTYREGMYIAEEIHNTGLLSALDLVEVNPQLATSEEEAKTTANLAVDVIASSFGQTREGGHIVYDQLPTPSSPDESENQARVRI

[3] = molecular target: T3, Arginase-2, mitochondrial (Homo sapiens, UniProt P78540); assay: Irreversible inhibition of human arginase 2 using thioarginine as substrate measured up to 360 mins by UV micro plate method
T3 sequence (P78540 whole entry): T2 sequence (whole entry)

Arginase-1 = molecular target: T4, Arginase-1 (Homo sapiens, UniProt P05089); assay: Irreversible inhibition of human arginase 1 using thioarginine as substrate measured up to 360 mins by UV micro plate method
T4 sequence (P05089 whole entry): T1 sequence (whole entry)

[4] = Reversible inhibition of human arginase using thioarginine as substrate measured up to 360 mins by UV micro plate method
[5] = molecular target: T1, Arginase-1 (Homo sapiens); assay: Binding affinity to human arginase 1 at Thr135 residues preincubated with compound at 500 uM followed by chymotrypsin addition measured after 16 hrs by tandem mass spectrometric method

| Kinact [1] [min⁻¹] | Kinact [2] [min⁻¹] | Ki [3] [µM] | Ki (Arginase-1) [µM] | Ki [4] [µM] | Activity [5] | SMILES |
| --- | --- | --- | --- | --- | --- | --- |
| 0.032 | 0.033 | 437 | 382 |  |  | CC(=O)OC(C(=O)O)c1ccc(NC(=N)N)cc1 (stereo not given) |
|  |  |  |  | 20 |  | N[C@@H](CSCCB(O)O)C(=O)O |
| 0.029 to 0.031 | 0.048 | 322 | 275 to 307 |  | Active | N=C(N)Nc1ccc(C(F)C(=O)O)cc1 (stereo not given) |
